Results: US20260069629A1, “RECEPTACLE, DEVICE FOR RELEASING CARBON MONOXIDE, TREATMENT SYSTEM, SET FOR TREATING LIVING CELLS, METHOD OF TREATING A MAMMAL, AND CARBON MONOXIDE” (Julius-Maximilians-Universität Würzburg, in Vertretung des …, priority 2022, published 2026)

Columns and labels:
human semen/spermatozoa [1] = test: Static oxidation-reduction potential (sORP) of spermatozoa incubated with/without CO, MiOXSYS (Example 1); assay type: cell-based; conditions: two-compartment capsule, 15 mg Mo-CORM, 90 minutes at 25-35° C.; vs samples not contacted with CO (woCO=1); FIG. 10
Experimental: (§1) In this example, the capsule (18-22 mm in length and 6-8 mm diameter) loaded with 15 mg of CO-releasing molecules (Mo-CORM) and 150 μl of an aqueous FeCl3 solution (583.3 mg/ml) was used for the preservation of a 0.7 mL to about 2.9 mL sample in a standard 15 mL Falcon tube.
(§2) Between 1.46 mL and 5.7 mL human semen/spermatozoa were collected from healthy males of between 25 and 50 years of age in 100 mL sample vials on site. Samples were then divided into two equal fractions each for subsequent incubation with CO (wCO) and without CO (woCO). In order to estimate the spermatozoa concentration in the samples and to establish an initial baseline for each sample, a routine spermiogram was performed before samples were transferred to gas-tight 15 mL Falcon tubes. Samples were incubated at 25-35° C. for 90 minutes with and without an activated capsule system in a closed container. During this incubation period liquefaction took place naturally. The samples were then analyzed for total motility, progressive motility, static oxidation-reduction potential, and for DNA fragmentation.
A Male Infertility Oxidative System (MiOXSYS, Englewood, CO) was used to determine static oxidation-reduction potential (sORP) levels. 30 μL of the sperm samples were transferred to the sample application port on a MiOXSYS sensor and analyzed for 2 minutes. […]

human semen/spermatozoa [2] = test: DNA fragmentation of spermatozoa incubated with/without CO, Halo Sperm G2 Kit (Example 1); assay type: cell-based; conditions: two-compartment capsule, 15 mg Mo-CORM, 90 minutes at 25-35° C.; vs samples not contacted with CO (woCO=1); FIG. 11
Experimental: as §1
as §2, with “During this incubation period liquefaction took place naturally.” left out
To determine DNA fragmentation a count-based microscopy assay was performed. For this spermatozoa samples were diluted using MHM-C (Multipurpose Handling Medium-Complete, FujiFilm, IrvineScientific) to a maximum of 20×E6 spermatozoa per mL and analyzed using a Halo Sperm G2 Kit (Halotech, Madrid, Spain). […] At least 300 spermatozoa were then analyzed using a bright field microscope. […]

human semen/spermatozoa [3] = test: Progressive motility of spermatozoa incubated with/without CO, CASA (Example 1); assay type: cell-based; conditions: two-compartment capsule, 15 mg Mo-CORM, 90 minutes; vs spermatozoa not contacted with CO
Experimental: as §1
as §2, with “Samples were incubated at 25-35° C. for 90 minutes with and without an activated capsule system in a closed container. During this incubation period liquefaction took place naturally.” left out
Total motility, progressive motility and concentration of the samples were assessed using a CEROS II (Hamilton Thorne, Beverly, MA) computer assisted sperm analysis (CASA) system. 6 μL of a sperm sample diluted 1:1 with Multipurpose Handling Medium-Complete (MHM-C, FujiFilm/IrvineScientific, Santa Ana, CA) was measured and the concentration and level of mobility (total and progressive motility) was assessed.

Human sperm = test: Static oxidation-reduction potential (sORP) of sperm treated with single-chamber receptacles, MiOXSYS (Example 2); assay type: cell-based; conditions: vs untreated, results expressed in mV/10^6 sperm/mL, FIG. 12
Experimental: Example 2 illustrates the improvement of spermatozoan viability parameters (namely, oxidation-reduction potential) in response to different carbon monoxide (CO) incubation durations. Sperm form the same subject was either treated with carbon monoxide or left untreated, as “untreated” control. Treatments with CO varied in duration (60, 90, 180, or 270 min).
In this example, sperm samples were treated with either one, three, or six receptacles/capsules, each loaded with 5 mg Mo-CORM (corresponds to 0.44 mL CO) for 60 to 270 mins, or left untreated for the same amount of time.
Human sperm was collected from healthy volunteers in 100 mL specimen containers. Afterwards, the ejaculate was split into equal parts and filled into 15 mL gas tight falcon tubes, with one of the samples being exposed to one or more activated receptacles/capsules. Then, both samples were analyzed for static oxidation-reduction potential (sORP) via MiOXSYS after a predetermined time.
An oxidative male infertility measuring System (MiOXSYS, Englewood, CO) was used to determine static oxidation-reduction potential (sORP) levels following manufacturer's specifications. 30 μL of sample were transferred to the sample application port onto a MiOXSYS sensor and analyzed for 2 minutes. The results were expressed in milli Volt (mV) and normalized to the seminal sperm concentration (mV/10^6 sperm/mL).

[4] = Carbon monoxide release from the receptacle after combining main substance and activation substance; assay type: physicochemical
Experimental: Carbon monoxide (CO) release was 1.30 mL, 0.95 mL, 0.44 mL, and 0.23 mL corresponding to 15 mg, 10 mg, 5 mg, and 2.5 mg of the main substance 42 (“Mo-CORM”), respectively.
Carbon monoxide (CO) release ranged from 0.95 mL to 0.34 mL corresponding to 50 μL to 10 μL of the activation substance 44 (“FeCl”), respectively.

Molecule	Relative oxidation-reduction-potential (sORP wCO / sORP woCO) (human semen/spermatozoa [1])	Relative DNA fragmentation (wCO / woCO) (human semen/spermatozoa [2])	progressive motility of spermatozoa (human semen/spermatozoa [3])	oxidation-reduction potential (sORP) of treated gametes (Human sperm; subject 38_7, contacted with carbon monoxide for 60 min)	oxidation-reduction potential (sORP) of treated gametes (Human sperm; subject 42_1, contacted with carbon monoxide for 90 min)	released amount/volume of carbon monoxide (CO) from the receptacle ([4]; 2.5 mg of the main substance (Mo-CORM), FIG. 9A)	released amount/volume of carbon monoxide (CO) from the receptacle ([4]; 5 mg of the main substance (Mo-CORM), FIG. 9A)	released amount/volume of carbon monoxide (CO) from the receptacle ([4]; 10 mg of the main substance (Mo-CORM), FIG. 9A)	released amount/volume of carbon monoxide (CO) from the receptacle ([4]; 15 mg of the main substance (Mo-CORM), FIG. 9A)	released amount/volume of carbon monoxide (CO) from the receptacle ([4]; 10 μL of the activation substance (FeCl), FIG. 9B)	released amount/volume of carbon monoxide (CO) from the receptacle ([4]; 50 μL of the activation substance (FeCl), FIG. 9B)
[C-]#[O+] [CO, carbon monoxide]	trend to be lower	reduced	improvement	drastic reduction	drastic reduction						
trisodiumtricarbonyl-[tris(isocyanoethylacetate)]molybdenum [Mo-CORM]						0.23 mL	0.44 mL	0.95 mL	1.30 mL	0.34 mL	0.95 mL
